Measured values taken from paper PMC13289148, “Assessment of the toxic effects of parabens, commonly used preservatives in cosmetics, and their halogenated by-products on human skin and endothelial cells” (NAM journal, 2025).
Entries after “also recorded” stand apart in the source; their conditions may differ.

Tests used:
[1] = MTT cytotoxicity assay, HEK001 keratinocytes; format: cell-based, human; settings: human, HEK001 epidermal keratinocytes, 24 h exposure, MTT, HEK001 keratinocytes; average ± standard deviation; read-out: EC50 from cytotoxicity assay, HEK001
Method: (§1) The human epidermal keratinocytes HEK001 (CRL-2404, ATCC, Manassas, VA) were maintained in a keratinocyte-serum-free medium supplemented with 5 ng/mL human recombinant EGF. The cells were incubated under 5 % CO2 and a 95 % humidified atmosphere at 37 °C ([Bogen et al., 2017]). HMEC-1 cells (CRL-3243, ATCC) were cultured at 37 °C in a 5 % CO2 humidified atmosphere using MCDB-131 medium supplemented with 10 % fetal bovine serum, 1 % penicillin/streptomycin, 10 mM l-glutamine, 1 μg/mL hydrocortisone, and 10 ng/mL EGF supplement.
(§2) The experiments were performed with biological (96 well plates) and technical (wells) replicates. Four to five biological replicates with four technical replicates were used to determine cytotoxicity. Ten paraben concentrations were assessed, ranging from a low human serum-relevant concentration (1 pM) to a high non-human-relevant concentration (1 mM). A solvent control of 0.6 % DMSO and a positive control of 5 % DMSO were also used. Three representative concentrations were chosen for each cell line for the wound-healing assay. Those concentrations were 1 µM, 10 µM, and 100 µM. Upon dosing, plates were returned to the incubator for a 24-hour exposure period.
(§3) Cell viability was assessed using the MTT assay [3-(4,5-dimethylthiazol-2-yl)−2,5-diphenyltetrazolium bromide] ([Solan et al., 2022]). After 24 h of exposure, a 20 % tetrazolium dye solution was added to the cells. The NAD(P)H-dependent oxidoreductase enzymes in viable cells reduced the tetrazolium dye, producing insoluble formazan crystals visible as a purple coloration, indicative of active cellular respiration. Following the incubation period, the media was carefully removed, leaving the formazan crystals behind. To dissolve these crystals, a 1:1 solution of ethanol and DMSO was added to the plate. Absorbance was then measured at 595 nm on a spectrophotometer to quantify the extent of formazan formation (BioTek SynergyTM H1, Winooski, VT).
(§4) A 24-hour exposure period was selected to evaluate the acute toxicity of parabens on HEK001 and HMEC-1 cell lines. […] Assessing the acute effects on these less-characterized cell lines is critical for enabling meaningful comparisons across models. Additionally, acute toxicity studies minimize confounding factors such as nutrient depletion and cell overgrowth, facilitating higher-throughput screening.

HEK001 cells = experiment: Wound healing (scratch) assay, HEK001; format: cell-based, human; settings: for proliferation rate / wound healing: HEK001, 100 µM; for proliferation rate / wound healing / proliferation rate in wound healing assay: 24 h
Method: as §1, §2
(§5) As described by [Grada et al. (2017)] and [Yarrow et al. (2004)], a wound-healing assay was used to evaluate the proliferation rate of a disrupted cell monolayer. Cells were seeded at 200,000 cells/mL in 48-well plates and allowed to stabilize, reaching 90–100 % confluency within 24–72 h. Once confluent, the growth media was removed, and a scratch was created in the cell monolayer using a pipette tip. Manual disruption of the cell monolayer was chosen over the use of inserts or automated scratching devices to design experiments that are cost-effective and accessible to laboratories with limited budgets. This approach provides greater flexibility in experimental design without reliance on specialized equipment, making it a practical solution for resource-constrained settings. Additionally, the manual scratch method may better simulate real-world injury scenarios. To minimize variability, consistent pipette tip sizes were employed, experiments were performed in multiple replicates, and immediate visual inspections were conducted to ensure reproducibility and uniformity across trials. The exposure media was then applied, and cytochalasin D ([…]) was used as a positive control to inhibit wound healing by suppressing cell division via […]. Cells were incubated with exposure media for 24 h while kinetic high contrast brightfield (HCBF) images were captured every 30 min using the Lionheart FX automated microscope (Biotek, Agilent). Gen5 software analyzed the scratch area over time, measuring the reduction in cell-free area as migration occurred. All data were normalized to the solvent control for consistency.

[2] = MTT cytotoxicity assay, HMEC-1 endothelial cells; format: cell-based; settings: human, HMEC-1 dermal microvascular endothelial cells, read-out: EC50 from cytotoxicity assay, HMEC-1
Method: as §1, §2, §3, §4

HMEC-1 cells = experiment: Wound healing (scratch) assay, HMEC-1; format: cell-based, human; settings: for proliferation rate relative to baseline / untreated control / sensitivity at high concentration / proliferation rate / wound healing: HMEC-1, 100 µM; for proliferation rate relative to baseline / untreated control / proliferation rate in wound healing assay / proliferation rate / wound healing: 24 h; for proliferation rate in wound healing assay: HMEC-1, 1–10 µM
Method: as §1, §2, §5

[3] = test system: HEK001 cells (human epidermal keratinocytes); experiment: MTT cytotoxicity assay, HEK001 keratinocytes; format: cell-based; settings: for EC50: 24 h exposure, MTT, HEK001 keratinocytes, average ± standard deviation, read-out: EC50 from cytotoxicity assay, HEK001; for cytotoxic response at high concentration: HEK001, 100 µM, proliferation could not be observed
Method: as §1, §2, §3, §4

HepG2 cells [4] = test system: HepG2 cells; design: method as in Khanal et al., 2012; settings: 125 µM, HepG2, compared to HBA, MeP, and PrP; ref Khanal et al., 2012; cited from earlier work
red blood cells (RBCs) = test system: red blood cells (RBCs); design: method as in Ko et al. (2023); settings: ref Ko et al. (2023), cited from earlier work
HepG2 cells [5] = test system: HepG2 cells; design: method as in Kizhedath et al., 2019; settings: 125 µM, ref Kizhedath et al., 2019; cited from earlier work
HDFn cells = test system: HDFn cells; design: method as in Kizhedath et al., 2019; settings: 125 µM, ref Kizhedath et al., 2019; cited from earlier work
HaCaT keratinocytes = test system: HaCaT keratinocytes; design: method as in Couch, 2024; Kinney, 2022; settings: 200 µM, ref Couch, 2024, Kinney, 2022; cited from earlier work
M624 melanoma cells = test system: M624 melanoma cells; design: method as in Couch, 2024; Kinney, 2022; settings: 200 µM, ref Couch, 2024, Kinney, 2022; cited from earlier work
[6] = 24 h exposure, MTT, HMEC-1 endothelial cells, average ± standard deviation
[7] = HEK001, 1 µM, versus solvent control
[8] = HEK001, 10 µM, versus solvent control

Structure (SMILES)	EC50 at 24 h [1] [µM]	proliferation rate / wound healing (HEK001 cells; versus solvent control)	EC50 at 24 h [2, 6] [µM]	proliferation rate relative to baseline / untreated control (HMEC-1 cells)	proliferation rate in wound healing assay (HMEC-1 cells)	EC50 [3] [µM]	cytotoxic response at high concentration [3]	proliferation rate in wound healing assay (HEK001 cells; [7])	sensitivity at high concentration (HMEC-1 cells)	other results
CCOC(=O)c1ccc(O)cc1 [EtP, ethylparaben]	536 ± 178	substantial decrease in proliferation rates	171 ± 77.9	20–30%	proliferation rates comparable to those observed in untreated controls	–	–	–	–	–
O=C(OCc1ccccc1)c1ccc(O)cc1 [BeP, benzylparaben]	3.34 ± 0.97	–	25.6 ± 3.9	–	proliferation rates comparable to those observed in untreated controls	3.3 ± 1	acutely lethal responses	lower proliferation rates compared to the solvent control	too sensitive to conduct proliferation assays	proliferation rate in wound healing assay (HEK001 cells; [8]): proliferation significantly decreased; also recorded: lower proliferation rates compared to the solvent control
COC(=O)c1cc(Cl)c(O)c(Cl)c1 [DCMeP, methyl 3,5-dichloro-4-hydroxybenzoate]	54.5 ± 17.8	–	> 10000	20–30%	no significant changes in proliferation	–	significant cell death	–	–	proliferation rate in wound healing assay (HEK001 cells; HEK001, 1–10 µM): decrease in proliferation; proliferation rate / wound healing (HMEC-1 cells): reduction
CCCCOC(=O)c1ccc(O)cc1 [BuP, butylparaben]	1.52 ± 0.51	–	75.8 ± 13.4	–	proliferation rates comparable to those observed in untreated controls	1.5 ± 0.51	acutely lethal responses	lower proliferation rates compared to the solvent control	too sensitive to conduct proliferation assays	percentage of apoptotic cells (HepG2 cells [4]): higher percentage of apoptotic cells; proliferation rate in wound healing assay (HEK001 cells; [8]): proliferation significantly decreased; also recorded: lower proliferation rates compared to the solvent control; hemolysis of RBCs (red blood cells (RBCs); 500 µM): increased hemolysis; extracellular phosphatidylserine of RBCs (red blood cells (RBCs); only BuP among MeP, EtP, PrP, BuP, HBA): increase in extracellular phosphatidylserine; cell cycle (HepG2 cells [5]): cell cycle arrest in the G1 phase; cell cycle (HDFn cells): cell cycle arrest in the G1 phase
COC(=O)c1ccc(O)cc1 [MeP, Methyl 4-hydroxybenzoate]	1310 ± 464	substantial decrease in proliferation rates	–	160%	proliferation rates comparable to those observed in untreated controls	–	–	–	–	EC50 at 24 h [2]: 1090 ± 618 µM
CCCCCCCOC(=O)c1ccc(O)cc1 [heptylparaben]	–	–	–	–	–	–	–	–	–	cell viability, cytochrome C levels, caspase 3 (HaCaT keratinocytes): significantly reduced cell viability, increased cytochrome C levels, and activated caspase 3; cell viability, cytochrome C levels, caspase 3 (M624 melanoma cells): significantly reduced cell viability, increased cytochrome C levels, and activated caspase 3
O=C(O)c1ccc(O)cc1 [HBA, 4-hydroxybenzoic acid]	696 ± 245	–	> 10000	–	–	–	–	–	–	–
COC(=O)c1ccc(O)c(Cl)c1 [CMeP, methyl 3‑chloro-4-hydroxybenzoate]	2.2 ± 0.8	–	788 ± 139	20–30%	proliferation rates comparable to those observed in untreated controls; also recorded: no significant changes in proliferation	–	significant cell death	–	–	proliferation rate in wound healing assay (HEK001 cells; HEK001, 1–10 µM): decrease in proliferation; proliferation rate / wound healing (HMEC-1 cells): reduction
CCCOC(=O)c1ccc(O)cc1 [PrP, propylparaben]	17 ± 9.9	–	102 ± 18	–	proliferation rates comparable to those observed in untreated controls	–	acutely lethal responses	–	too sensitive to conduct proliferation assays	–
COC(=O)c1cc(Br)c(O)c(Br)c1 [DBMeP, methyl 3,5-dibromo-4-hydroxybenzoate]	1.49 ± 0.37	dose-dependent increase in proliferation	489 ± 86.4	20–30%	–	1.5 ± 0.4	–	initially reduced proliferation	–	proliferation in wound healing assay (HEK001 cells; HEK001, concentrations higher than 1 µM): dose-dependent increase in proliferation; proliferation in wound healing assay (HMEC-1 cells; HMEC-1, concentration not stated, high variability): reduction in proliferation
